Results reported in patent publication US9725442B2, “Heterocyclic derivative having PGD2 receptor antagonist activity” (Shionogi & Co., Ltd., priority 2011, dated 2017).
Like-named read-outs stand apart in the source and are kept apart here.

Assays:
[1] = target: CRTH2 (Homo sapiens (Human), UniProt Q9Y5Y4); test: CRTH2 receptor binding inhibitory activity ([3H]-PGD2 displacement, membranes of CRTH2-expressing K562 cell); conditions: [3H]-PGD2 displacement, membrane of CRTH2-expressing K562 cell, read-out: Ki
Chain of CRTH2 (Q9Y5Y4 whole entry): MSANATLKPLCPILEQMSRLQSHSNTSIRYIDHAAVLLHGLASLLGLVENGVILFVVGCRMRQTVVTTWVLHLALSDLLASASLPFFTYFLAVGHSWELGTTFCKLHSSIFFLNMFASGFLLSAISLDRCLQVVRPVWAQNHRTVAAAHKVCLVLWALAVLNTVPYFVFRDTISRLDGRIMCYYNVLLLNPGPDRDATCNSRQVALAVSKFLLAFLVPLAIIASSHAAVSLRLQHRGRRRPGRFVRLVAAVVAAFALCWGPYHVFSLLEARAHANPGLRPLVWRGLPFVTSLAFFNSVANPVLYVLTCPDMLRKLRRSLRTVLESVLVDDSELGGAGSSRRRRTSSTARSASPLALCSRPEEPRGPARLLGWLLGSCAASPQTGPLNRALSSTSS
How it was run: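 Incubation ran 60 min at room temperature using 20 μg/well membrane from CRTH2-expressing K562 cells in pH 7.4 Tris/HCl (50 mM) with 10 mM MgCl2.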

[2] = target: Human DP1 receptor (Homo sapiens (Human), UniProt Q13258); test: Human DP1 inhibitory activity in DP1-expressing cell (PGD2-induced cAMP); type: cell-based; conditions: category of cAMP IC50, human DP1 receptor expressing Jurkut cell
Chain of Human DP1 receptor (Q13258 whole entry): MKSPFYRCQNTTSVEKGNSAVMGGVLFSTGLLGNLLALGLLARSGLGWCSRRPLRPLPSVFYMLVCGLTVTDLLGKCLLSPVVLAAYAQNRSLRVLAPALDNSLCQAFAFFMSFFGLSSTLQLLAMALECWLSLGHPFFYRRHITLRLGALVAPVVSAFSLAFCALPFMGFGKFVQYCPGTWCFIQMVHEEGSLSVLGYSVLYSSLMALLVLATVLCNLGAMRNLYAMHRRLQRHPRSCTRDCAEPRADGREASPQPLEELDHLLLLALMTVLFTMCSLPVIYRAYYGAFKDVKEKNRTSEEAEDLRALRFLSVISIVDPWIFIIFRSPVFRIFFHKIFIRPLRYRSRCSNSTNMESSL
Experimental: Compounds were categorized as AA (cAMP is less than 100 nM) and A (cAMP is more than 100 nM and less than 5000 nM) as shown in Table 99 and 100.

[3] = CRTH2 receptor binding, categorized AAAA/AAA

| Compound | Ki [1, 3] [nM] | IC50 [2] [nM] | Ki [1] [nM] |
| --- | --- | --- | --- |
| CCOc1ccc(S(=O)(=O)N2C[C@H](n3nc(CC(=O)O)c4ccccc43)C[C@@H]2CC2COC2)cc1 [Compound I-352] | 100 to 5000 | 100 to 5000 | – |
| CC(C)Oc1ccc(S(=O)(=O)N2C[C@@H](C)[C@@H](n3nc(CC(=O)O)c4ccc(Cl)cc43)C2)cc1 [Compound I-135] | < 100 | < 100 | – |
| CC(C)Oc1ccc(S(=O)(=O)N2C[C@H](n3nc(CC(=O)O)c4ccc(F)cc43)C[C@H]2c2ccccn2)cc1 [Compound I-350] | < 100 | 100 to 5000 | – |
| CCOc1ccc(S(=O)(=O)N2C[C@@H](C)[C@@H](n3nc(CC(=O)O)c4ccccc43)C2)c(C=NOC)c1 [Compound I-181] | 100 to 5000 | 100 to 5000 | – |
| Cc1ccc2c(c1)c(CC(=O)O)nn2[C@H]1CN(S(=O)(=O)c2ccc(OCF)cc2)C[C@H]1C [Compound I-268] | < 100 | < 100 | – |
| COc1ccccc1OC[C@H]1C[C@@H](n2nc(CC(=O)O)c3ccc(F)cc32)CN1S(=O)(=O)c1ccc(OC(C)C)cc1 [Compound I-344] | 100 to 5000 | < 100 | – |
| CCOc1ccc(S(=O)(=O)N2C[C@@H](C)[C@@H](n3nc(CC(=O)O)c4ccc(N5CCOCC5)cc43)C2)cc1 [Compound I-219] | 100 to 5000 | 100 to 5000 | 230 |
| C[C@@H]1CN(S(=O)(=O)C2CCCCC2)C[C@@H]1n1nc(CC(=O)O)c2ccccc21 [Compound I-266] | 100 to 5000 | 100 to 5000 | – |
| CC(C)Oc1ccc(S(=O)(=O)N2C[C@@H](C)[C@@H](n3cc(CC(=O)O)c4cccnc43)C2)cc1 [Compound I-148] | < 100 | 100 to 5000 | 5.6 |
| CCOc1ccc(S(=O)(=O)N2C[C@@H](C)[C@@H](n3nc(C(F)(F)C(=O)O)c4ccccc43)C2)cc1 [Compound I-290] | 100 to 5000 | < 100 | – |
| CC(C)Oc1ccc(S(=O)(=O)N2C[C@H](O)[C@@H](n3nc(CC(=O)O)c4ccc(F)cc43)C2)cc1 [Compound I-25] | < 100 | 100 to 5000 | – |
| CCOc1ccc(S(=O)(=O)N2C[C@@H](C)[C@@H](n3cc(CC(=O)O)c4ccc(C)cc43)C2)cn1 [Compound I-272] | < 100 | < 100 | – |
| CC(C)Oc1ccc(S(=O)(=O)N2CC[C@H](n3nc(CC(=O)O)c4ccc(F)cc43)C[C@H]2CO)cc1 [Compound I-72] | 100 to 5000 | 100 to 5000 | – |
| CC(C)Oc1ccc(S(=O)(=O)N2C[C@H](n3nc(CC(=O)O)c4ccc(F)cc43)C[C@@H]2c2ccccc2F)cc1 [Compound I-302] | 100 to 5000 | 100 to 5000 | – |
| C=CCOC[C@H]1C[C@@H](n2nc(CC(=O)O)c3ccc(F)cc32)CN1S(=O)(=O)c1ccc(OC(C)C)cc1 [Compound I-323] | 100 to 5000 | 100 to 5000 | – |
| CC(C)Oc1ccc(S(=O)(=O)N2C[C@H](n3nc(CC(=O)O)c4ccccc43)C[C@@H]2C)cc1 [Compound I-91] | < 100 | < 100 | – |
| [2H]c1ccc2c(c1)c(CC(=O)O)nn2[C@H]1CN(S(=O)(=O)c2ccc(OCC)cc2)C[C@H]1C [Compound I-264] | < 100 | < 100 | – |
| C[C@@H]1CN(S(=O)(=O)c2ccc(OC(F)F)cc2)C[C@H]1n1nc(CC(=O)O)c2ccccc21 [Compound I-195] | < 100 | 100 to 5000 | – |
| C[C@@H]1CN(S(=O)(=O)c2ccc3occc3c2)C[C@@H]1n1nc(CC(=O)O)c2ccccc21 [Compound I-215] | < 100 | 100 to 5000 | 22 |
| C[C@@H]1CN(S(=O)(=O)c2ccc(OC(F)F)cc2)C[C@@H]1n1nc(CC(=O)O)c2ccc(F)cc21 [Compound I-107] | < 100 | < 100 | – |
| COc1ccc(S(=O)(=O)N2C[C@@H](C)[C@@H](n3nc(CC(=O)O)c4ccc(F)cc43)C2)s1 [Compound I-179] | < 100 | < 100 | – |
| CC(C)Oc1ccc(S(=O)(=O)N2CC=C(n3nc(CC(=O)O)c4ccc(F)cc43)C2)cc1 [Compound I-28] | 100 to 5000 | < 100 | – |
| COc1ccc(S(=O)(=O)N2C[C@@H](C)[C@@H](n3nc(CC(=O)O)c4ccc(Cl)cc43)C2)cc1 [Compound I-140] | < 100 | < 100 | – |
| COCCOCCOC[C@H]1C[C@@H](n2nc(CC(=O)O)c3ccc(F)cc32)CN1S(=O)(=O)c1ccc(OC(C)C)cc1 [Compound I-291] | 100 to 5000 | 100 to 5000 | – |
| CCOc1ccc(S(=O)(=O)N2C[C@@H](C)[C@@H](n3nc(CC(=O)O)c4ccccc43)C2)c(CO)c1 [Compound I-277] | < 100 | < 100 | – |
| COCCCOc1ccc(S(=O)(=O)N2C[C@@H](C)[C@@H](n3nc(CC(=O)O)c4ccccc43)C2)cc1 [Compound I-274] | < 100 | 100 to 5000 | – |
